Data reported in publication PMC12775434, “Ultra-large virtual screening unveils potent agonists of the neuromodulatory orphan receptor GPR139” (Nature Communications, 2025).
Where “and” joins values, the source holds several entries; their conditions need not be identical. Equal values may be shown once. Read-outs that look alike come from different tables or passages of the source.

What was measured:
[1] = target: T1, human muscarinic acetylcholine M1 receptor (M1R) (Homo sapiens, UniProt P11229); experiment: Ca2+ mobilization counter-screen in M1R-CHOk1 cells; assay type: cell-based; settings: individual replicates (Supplementary Figure 2);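 further: 10 µM test compound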
T1 sequence (P11229 1-460): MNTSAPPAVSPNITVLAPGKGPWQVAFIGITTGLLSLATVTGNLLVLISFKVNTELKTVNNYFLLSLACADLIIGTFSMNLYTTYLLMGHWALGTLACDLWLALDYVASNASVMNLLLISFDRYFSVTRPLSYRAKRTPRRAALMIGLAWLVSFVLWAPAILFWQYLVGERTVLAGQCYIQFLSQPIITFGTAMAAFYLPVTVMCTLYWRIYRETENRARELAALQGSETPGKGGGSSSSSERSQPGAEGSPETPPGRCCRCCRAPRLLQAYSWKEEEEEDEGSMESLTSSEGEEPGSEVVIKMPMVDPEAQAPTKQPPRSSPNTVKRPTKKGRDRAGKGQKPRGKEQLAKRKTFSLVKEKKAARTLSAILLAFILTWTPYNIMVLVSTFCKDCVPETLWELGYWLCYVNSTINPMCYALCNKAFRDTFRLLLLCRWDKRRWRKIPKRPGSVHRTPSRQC
How it was run: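 M1R-CHOk1 cells seeded 20–24 h, loaded with 2 µM Fluo-4 AM (2.5 mM probenecid, 0.01% Pluronic F-68) for 1 h at 37 °C in HBSS/20 mM HEPES pH 7.4. Compounds added after baseline (≤0.3% DMSO); calcium fluorescence read at 37 °C, ex 485/em 525 nm.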

GPR139 = target: T2, GPR139 (Homo sapiens, UniProt Q6DWJ6); experiment: Inositol monophosphate (IP1) accumulation assay, GPR139-CHOk1; assay type: cell-based; settings: for IP1 response (% of Cmp 1a): replicate experiments; for Emax: normalized to Lundbeck Cmp 1a
T2 sequence (Q6DWJ6 1-353): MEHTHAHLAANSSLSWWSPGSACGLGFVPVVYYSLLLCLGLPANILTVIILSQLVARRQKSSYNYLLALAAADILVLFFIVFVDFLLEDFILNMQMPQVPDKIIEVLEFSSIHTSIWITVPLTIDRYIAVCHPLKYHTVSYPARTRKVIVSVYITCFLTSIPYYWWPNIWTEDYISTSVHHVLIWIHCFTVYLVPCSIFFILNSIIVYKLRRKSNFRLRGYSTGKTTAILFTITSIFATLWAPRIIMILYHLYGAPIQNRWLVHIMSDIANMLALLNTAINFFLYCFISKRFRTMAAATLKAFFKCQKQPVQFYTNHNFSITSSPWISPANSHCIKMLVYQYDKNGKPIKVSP
Method: Primary screening and pharmacological characterization of compounds were performed using a CHO-K1 cell line that stably expresses human GPR139 (GPR139-CHOk1). The GPR139-CHOk1 cell line was kindly provided by H. Lundbeck A/S, Denmark[24]. GPR139-CHOk1 cells were grown in Ham’s F-12 Kaighn’s Modification Medium (ThermoFisher #21127030) supplemented with 10% dialyzed fetal bovine serum (US origin, ThermoFisher #26400044), 100 units/mL Penicillin-Streptomycin (ThermoFisher #15140122), and 1 mg/mL Geneticin (ThermoFisher #11811031). […] M1R-CHOk1 cells were purchased from The Missouri S&T cDNA Resource Center (#CEM100TN00). M1R-CHOk1 cells were grown in Ham’s F12 Medium (ThermoFisher #21765029) supplemented with 10% fetal bovine serum (Brazilian origin, ThermoFisher #10270106), 100 units/mL Penicillin-Streptomycin, and 0.25 mg/mL Geneticin. HEK293A cells transiently transfected with GPR139 were used for additional pharmacological assessment of signaling pathways activated by GPR139. HEK239A cells were generously provided by Dr. Asuka Inoue, Tohoku University, Japan. HEK293A cells were grown in Dulbecco’s Modified Eagle Medium (ThermoFisher #31966047) supplemented with 10% dialyzed fetal bovine serum and 100 units/mL Penicillin-Streptomycin. Cell lines were maintained at 37 °C in humidified incubator equilibrated with 5% CO2.
HTRF IP-One Gq kit (Cisbio #62IPAPEC) was used to detect the accumulation of inositol monophosphate (IP1) as described in the work by Shehata et al.[26]. GPR139-CHOk1 cells were dissociated and resuspended in HEPES buffer. 50,000 cells in 5 µL and 5 µL test compounds diluted from DMSO stocks (final DMSO concentration of maximally 0.3%) in HEPES buffer supplemented with 40 mM LiCl were mixed in each well of white 384-well OptiPlate (PerkinElmer #6007290). The cells were incubated for 1 h at 37 °C. Then, 10 µL detection reagent composed of 2.5% Eu3 + -anti-IP1 antibody and 2.5% IP1-d2 diluted in lysis buffer was added, and the cells were incubated for 1 h at room temperature before measurements. Measurements were performed on EnVision Multimode Plate Reader (PerkinElmer) using excitation light of 340 nm and emission light of 615 nm and 665 nm. The time resolved-fluorescence resonance energy transfer (TR-FRET) 665 nm/615 nm ratio, which is inversely proportional to the IP1 accumulation, was used to determine the IP1 response.
Pharmacological data and statistical analyses were performed in GraphPad Prism v9–10 (Graphpad Software Inc., San Diego, CA), which are also specifically described in the figure and table legends. The functional assay responses were normalized to buffer (0%) and Lundbeck Cmp 1a or JNJ-63533054 (100%), for Ca^2+ and IP1 experiments in the GPR139-CHOk1 stable cell line or Ca^2+, G protein activation, and arrestin-3 recruitment experiments in the HEK293A cells transiently transfected with GPR139, respectively. Data are from at least three independent experiments, unless stated otherwise. Concentration-response curves were fitted applying non-linear regression using the log (agonist) versus response model with variable slope. ANOVA was applied for comparing results and determining statistical significance. Comparison of responses to the reference was performed using one-way ANOVA with Dunnett’s multiple comparisons test at significance threshold of p < 0.05. Comparison of responses across assays and ligands was performed using two-way ANOVA with Tukey’s multiple comparisons test at a significance threshold of p < 0.05.

SMILES	Ca2+ signal (% of Carbachol) [1]	IP1 response (% of Cmp 1a) (GPR139; log [Compound] M -4.5)	IP1 response (% of Cmp 1a) (GPR139; log [Compound] M -5.0)	IP1 response (% of Cmp 1a) (GPR139; log [Compound] M -5.5)	IP1 response (% of Cmp 1a) (GPR139; log [Compound] M -6.0)	IP1 response (% of Cmp 1a) (GPR139; log [Compound] M -6.5)	IP1 response (% of Cmp 1a) (GPR139; log [Compound] M -7.0)	IP1 response (% of Cmp 1a) (GPR139; log [Compound] M -7.5)	IP1 response (% of Cmp 1a) (GPR139; log [Compound] M -8.0)	EC50 (GPR139; read-out: pEC50 IP1 (converted)) [nM]	EC50 (GPR139; Supplementary Table 2, mean ± SEM, read-out: pEC50 IP1 (converted)) [nM]	Emax (GPR139; Supplementary Table 2, read-out: Emax (%) IP1) [%]	Emax (GPR139; Supplementary Table 4, read-out: Emax (%), IP1 accumulation) [%]	EC50 (GPR139; Supplementary Table 4, read-out: pEC50, IP1 accumulation (converted)) [nM]
CC(NC(=O)Cn1cncc(-c2ccccc2)c1=O)c1ccccc1 (stereo not shown) [Compound 5, C[C@@H](NC(=O)CN1C=NC=C(C=2C=CC=CC2)C1=O)C=3C=CC=CC3]	-15 % of Carbachol and -5 % of Carbachol	68 % of Cmp 1a and 53 % of Cmp 1a and 56 % of Cmp 1a	33 % of Cmp 1a and 17 % of Cmp 1a and 31 % of Cmp 1a	13 % of Cmp 1a (2×) and 9 % of Cmp 1a	7 % of Cmp 1a and -0.0762 % of Cmp 1a and 3.67 % of Cmp 1a	-1.74 % of Cmp 1a and -4 % of Cmp 1a and 0.455 % of Cmp 1a	2.62 % of Cmp 1a and -1.59 % of Cmp 1a and -2.51 % of Cmp 1a	0.67 % of Cmp 1a and -2.55 % of Cmp 1a and -3 % of Cmp 1a	-0.409 % of Cmp 1a and -3 % of Cmp 1a and -0.447 % of Cmp 1a	25100	–	–	–	–
Cc1cc(-c2nc(CC(=O)NC(C)c3ccccc3)no2)sc1C (stereo not shown) [Compound 1, CC(NC(=O)CC1=NOC(=N1)C2=CC(C)=C(C)S2)C=3C=CC=CC3]	-12 % of Carbachol and -15 % of Carbachol	99 % of Cmp 1a and 115 % of Cmp 1a and 112 % of Cmp 1a and 118 % of Cmp 1a	92 % of Cmp 1a and 116 % of Cmp 1a and 103 % of Cmp 1a and 95 % of Cmp 1a	125 % of Cmp 1a and 86 % of Cmp 1a and 77 % of Cmp 1a and 96 % of Cmp 1a	63 % of Cmp 1a and 74 % of Cmp 1a and 39 % of Cmp 1a and 72 % of Cmp 1a	35 % of Cmp 1a and 29 % of Cmp 1a and 17 % of Cmp 1a and 40 % of Cmp 1a	21 % of Cmp 1a and 14 % of Cmp 1a and 6 % of Cmp 1a and 18 % of Cmp 1a	-5 % of Cmp 1a and 4 % of Cmp 1a and 0.66 % of Cmp 1a and 5.34 % of Cmp 1a	1.43 % of Cmp 1a and -2.78 % of Cmp 1a and 0.322 % of Cmp 1a and 4 % of Cmp 1a	–	794	114 ± 5	–	–
CC(NC(=O)CNC(=O)c1cccc(Cl)c1)c1ccccc1 (stereo not shown) [JNJ-63533054, reference compound]	–	132 % of Cmp 1a and 117 % of Cmp 1a and 179 % of Cmp 1a and 200 % of Cmp 1a	149 % of Cmp 1a and 120 % of Cmp 1a and 161 % of Cmp 1a and 172 % of Cmp 1a	112 % of Cmp 1a and 93 % of Cmp 1a and 135 % of Cmp 1a and 165 % of Cmp 1a	129 % of Cmp 1a and 86 % of Cmp 1a and 138 % of Cmp 1a and 168 % of Cmp 1a	93 % of Cmp 1a (2×) and 74 % of Cmp 1a and 97 % of Cmp 1a	56 % of Cmp 1a and 47 % of Cmp 1a and 72 % of Cmp 1a and 84 % of Cmp 1a	40 % of Cmp 1a and 23 % of Cmp 1a and 36 % of Cmp 1a and 37 % of Cmp 1a	24 % of Cmp 1a and 9 % of Cmp 1a and 8 % of Cmp 1a and 2 % of Cmp 1a	–	–	–	157 ± 16	200
